pIC50: −log10 of the molar value.
Tests used:
[1] = Antiproliferative activity against P-gp170/MDR expressing human KBVIN cells after 72 hrs by methylene blue dye assay; format: functional, cell-based
MKN-45 = assay: Antiproliferative activity against human MKN45 cells after 72 hrs by methylene blue dye assay; format: functional, cell-based; settings: MKN-45, 72 h
HT-29 = assay: Antiproliferative activity against human HT-29 cells after 72 hrs by methylene blue dye assay; format: functional, cell-based; settings: HT-29, 72 h
NCI-H460 = assay: Antiproliferative activity against human H460 cells after 72 hrs by methylene blue dye assay; format: functional, cell-based; settings: NCI-H460, 72 h
KB = assay: Antiproliferative activity against human KB cells after 72 hrs by methylene blue dye assay; format: functional, cell-based
[2] = Displacement of [3H]colchicine from tubulin by at 5 uM scintillation proximity assay
[3] = Inhibition of tubulin polymerization by turbidimetric assay
[4] = Displacement of [3H]colchicine from tubulin by at 1 uM scintillation proximity assay

| Compound | pIC50 (MKN-45) | pIC50 (HT-29) | pIC50 (NCI-H460) | pIC50 (KB) | pIC50 [1] | Activity [2] | pIC50 [3] | Activity [4] |
| --- | --- | --- | --- | --- | --- | --- | --- | --- |
| COc1cc(C(=O)c2cnc3ccccc3c2)cc(OC)c1OC | 6.25 | 6.00 | 5.80 | 5.74 | 5.96 |  |  |  |
| COc1ccc2nc(C(=O)c3cc(OC)c(OC)c(OC)c3)ccc2c1 | 6.82 | 7.11 | 7.21 | 7.57 | 7.67 | 68% | 5.46 | 40% |
| COc1cc(C(=O)c2ccc3ncccc3c2)cc(OC)c1OC | 7.79 | 7.61 | 7.44 | 7.62 | 7.67 | 72% | 5.54 | 51% |
| COc1ccc(/C=C\c2cc(OC)c(OC)c(OC)c2)cc1O [COMBRETASTATIN A4] | 8.31 | 6.08 | 8.59 | 8.62 | 8.72 | 95% | 5.68 | 87% |
| COc1cc(C(=O)c2ccnc3ccccc23)cc(OC)c1OC | 6.04 | 5.64 | 5.42 | 5.46 | 5.66 |  |  |  |
| COc1cc(C(=O)c2cccc3ncccc23)cc(OC)c1OC | 5.92 | 5.55 | 5.42 | 5.54 | 5.64 |  |  |  |
| COc1cc(C(=O)c2ccc3c(N)c(OC)ccc3n2)cc(OC)c1OC | 9.52 | 9.40 | 9.40 | 9.52 | 9.70 | 97% | 5.80 | 90% |
| COc1cc(C(=O)c2ccc3c(ccc[n+]3[O-])c2)cc(OC)c1OC | 6.21 | 6.06 | 5.96 | 6.08 | 6.12 |  |  |  |
| COc1cc(C(=O)c2ccc3cccnc3c2)cc(OC)c1OC | < 5.00 | < 5.00 | < 5.00 | < 5.00 | < 5.00 |  |  |  |

Continued, in another order:

| pIC50 (MKN-45) | pIC50 (HT-29) | pIC50 (NCI-H460) | pIC50 (KB) | Compound | pIC50 [1] | Activity [2] | pIC50 [3] | Activity [4] |
| --- | --- | --- | --- | --- | --- | --- | --- | --- |
| 6.83 | 6.79 | 6.71 | 6.81 | COc1cc(C(=O)c2ccnc3c(OC)cccc23)cc(OC)c1OC | 6.78 |  |  |  |
| 6.86 | 6.69 | 6.59 | 6.52 | COc1ccc2cc(C(=O)c3cc(OC)c(OC)c(OC)c3)ccc2n1 | 6.69 |  | < 5.00 |  |
| < 5.00 | < 5.00 | < 5.00 | < 5.00 | COc1cc(C(=O)c2ccc3c(ccc[n+]3C)c2)cc(OC)c1OC | < 5.00 |  |  |  |
| 5.49 | 5.35 | 5.30 | 5.09 | COc1cc(C(=O)c2cccc3cccnc23)cc(OC)c1OC | 5.22 |  |  |  |
| 6.61 | 6.83 | 6.74 | 6.76 | COc1cc(C(=O)c2ccc3ccccc3n2)cc(OC)c1OC | 6.93 |  | < 5.00 |  |
